Measurements from patent publication EP0115142B1, “Chroman compounds” (priority 1982, dated 1984).
Counter-ions that a name gives are not always drawn. Marks after values point to notes of the source that are not given here.

Key:
[1] = tested on: Male Sprague-Dawley (HLA) rats; assay: Clonidine hypoactivity (CH) test; assay type: in vivo
Protocol: The suppression can be prevented by administration of an alpha2-antagonist as described by J. Malick et al. in Federation Proceedings, Vol. 40, page 244 (1981), a publication of the Federation of the American Societies of Experimental Biology. Male Sprague-Dawley (HLA) rats, weighing 140 to 180 g, were used throughout these studies. Spontaneous locomotor activity was measured in Animex activity monitors supplied by Columbus Instruments, Columbus, Ohio; groups of three animals were placed in a chamber of clear "Plexiglas", 26.5 x 26.5 x 15 cm for the test. ("Plexiglas" is a trademark of Rohm & Haas Co., Philadelphia, Pennsylvania, USA, for thermoplastic polymethyl methacrylate type polymers and plastic sheets). All animals received two injections prior to testing according to the following paradigm: vehiclec (HPMC) or antagonist was administered subcutaneously 30 minutes prior to intraperitoneal administration of either HPMC or clonidine. […] Animals were placed into the motor activity chambers as soon as possible after the second injection and total activity counts were recorded for 20 minutes. Five groups of 3 rats each were used for each dose of drug or control.

DBA-2 mice = assay: Audiogenic seizure (AS): reversal of clonidine protection; assay type: in vivo; conditions: for Minimal effective doses (MED) AS (i.p.): one hour before clonidine 0.4 mg/kg i.p., sound 30 minutes later, mice
Source text: Audiogenic Seizure (AS): Sound-produced seizures in mice are blocked by clonidine, an alpha2- agonist, and such a model may be used to measure the activity of a particular compound as an alpha2- antagonist, specifically as it decreases clonidine activity. The activity of clonidine in this regard and its relationship to alpha2-receptors is described by R. Horton et al. in the Journal of Pharmacology and Experimental Therapeutics, Vol. 214, No. 2, pages 437-442 (1980). DBA-2 mice (20-22 days of age; 8 to 12 g) are used in these studies. Mice are tested individually in a glass bell jar (112 inches high and 12 inches in diameter) which is placed in a sound-attenuated chamber. An electric bell is used to generate a noise level of 116-118 decibels. Mice are allowed to acclimate to the chamber for 30 seconds and are then exposed to the sound for 60 seconds. The auditory stimulation causes a convulsive episode characterized by wild running, clonus, tonus and death. […] Thus, the test compound is dissolved in a hydroxypropylmethylcellulose (HPMC) vehicle consisting of 0.1% Tween° 80 and 0.5% hydroxypropylmethylcellulose in an 0.9% by weight sodium chloride aqueous solution and injected intraperitoneally (i.p.) into the mouse. (Tween^O is a registered trademark of ICI Americas Inc., Wilmington, Delaware, USA, for emulsifiers, wetting and dispersing agents. Tween@ is polyoxyethylene sorbitan mono-oleate). After one hour, the mouse is challenged with clonidine intraperitoneally at 0.4 mg/kg of body weight. After a further 30 minutes, the mouse is subjected to a tone from a high intensity bell and the mouse is observed for seizure activity. The activity is scored on the basis of whether clonic and/or tonic seizures occur.

[2] = target: T1, alpha2 binding site in human platelets (Homo sapiens, UniProt P08913); assay: Tritiated yohimbine binding assay
T1 construct: from tissue; host or cells: human platelets (washed and disrupted membrane preparation)
T1 sequence (P08913 1-465): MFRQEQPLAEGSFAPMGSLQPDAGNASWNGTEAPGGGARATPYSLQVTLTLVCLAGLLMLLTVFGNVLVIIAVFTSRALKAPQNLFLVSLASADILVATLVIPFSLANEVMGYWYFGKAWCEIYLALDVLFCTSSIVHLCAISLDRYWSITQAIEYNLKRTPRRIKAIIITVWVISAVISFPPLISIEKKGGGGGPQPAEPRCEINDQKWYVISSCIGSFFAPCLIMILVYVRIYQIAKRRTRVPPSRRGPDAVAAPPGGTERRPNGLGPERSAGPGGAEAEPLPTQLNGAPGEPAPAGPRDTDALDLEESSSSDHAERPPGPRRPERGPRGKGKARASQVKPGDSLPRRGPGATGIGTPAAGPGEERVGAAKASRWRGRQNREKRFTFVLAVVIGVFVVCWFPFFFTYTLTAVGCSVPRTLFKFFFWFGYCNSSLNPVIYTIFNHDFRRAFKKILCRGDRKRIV
Protocol: The test is conducted as described by M. Daiguji et al. in Life Sciences, Vol. 28, pages 2705-2717 (1981). Platelets are washed and disrupted as described in the Daiguji article. The amount of platelet used per assay varies between 0.2 to 1.5 mg of protein. […] For the determination of non-specific binding, 20 microliters of 10 millimolar norepinephrine is used. The incubation is conducted at 25°C for 60 minutes, after which the membranes are filtered under vacuum on a GF/B filter. The filters are then counted in a scintillation counter. […] It is known that if an alpha2-agonist or alpha2-antagonist binds to alpha2 sites, such will be displaced more easily by a compound which is also of the same type, i.e., an agonist or antagonist, respectively.

locus coeruleus = assay: Locus coeruleus test (single unit firing, clonidine reversal); assay type: in vivo, Male Sprague-Dawley rats; conditions: anesthetized rats; for clonidine required to re-suppress firing: after firing was reinstated by the test agent, i.v.; for dose that reinstated firing: i.v. infusion after clonidine 10 micrograms/kg i.v. suppressed firing
Protocol: Locus Coeruleus Test: The locus coeruleus test for alpha2-antagonist activity is predictive of anti- depressant activity as described by G. Engberg et al. in Communications in Psychopharmacology, Vol. 4, pages 233-239 (1980). The alphas-antagonistic properties of a test agent are determined as follows: Male Sprague-Dawley rats (280-320 g) are anesthetized with sodium pentobarbitol (60 mg/kg of body weight, i.p.) and placed in a stereotaxic instrument to allow precise location of the electrode in the locus coeruleus. Extracellular single unit activity is recorded from the locus coeruleus using stainless steel or tungsten microelectrodes (2-5 megohm impedance). Extracellular potentials are counted during successive 10 second intervals and recorded on a digital counter. The baseline firing rate of each neuron is determined for 3 to 5 minutes before drug administration. Drugs are injected intravenously in a volume of 0.1 ml; data are collected for 2 to 3 minutes between multiple drug injections. The ability of a test agent to reverse the suppressant effects of clonidine, and the total cumulative dose of clonidine required to override the test agent, are indicative of alpha2-antagonistic properties. In this test, 10 micrograms/kg of body weight of clonidine were administered by infusion intravenously to suppress firing.

mouse = assay: Mouse learned helplessness swimming test (MLHS); assay type: in vivo; conditions: one hour before test, time in tonic immobility
Protocol: During testing, a mouse is gently placed in the water and tested for a total of 6 minutes as follows: during the first 2 minutes the animal quickly "learns" there is no escape and spends the vast majority of the last 4 minutes floating (tonic immobility). Nothing is recorded during the first 2 minutes (learning period) but the time in seconds spent in tonic immobility during the last 4 minutes of the session is recorded. […] Control (vehicle-treated) groups are run each day and drug-treated groups are compared to these via a Student's t-test.

Clc1cccc(Cl)c1N=C1NCCN1 [Clonidine, reference compound]
lowest dose that consistently produced a statistically significant reduction in motor activity ([1]; i.p., rats, pilot studies): 0.01 mg/kg of body weight | mice protected from audiogenic seizures (DBA-2 mice; 0.4 mg/kg of body weight, i.p., 30 minutes prior to auditory stimulation): 100%

c1ccc2c(c1)CCC(C1=NCCN1)O2 (centres unmarked) [Example 1c, 2-(2-Imidazolin-2-yl)chroman]
Minimal effective doses (MED) CH (s.c.) ([1]; rat, in vivo): 0.3 mg/kg of body weight | IC50 [2]: 0.034 µM | clonidine required to re-suppress firing (locus coeruleus): 1280 micrograms/kg of body weight | dose that reinstated firing (locus coeruleus): reinstated firing at the same level | Minimal effective doses (MED) MLHS (i.p.) (mouse): 10 mg/kg of body weight | Minimal effective doses (MED) AS (i.p.) (DBA-2 mice): 5 mg/kg of body weight

Fc1cccc2c1CCC(C1=NCCN1)O2 (centres unmarked) [Example 2e, 2-(2-Imidazolin-2-yl)-5-fluorochroman]
Minimal effective doses (MED) CH (s.c.) ([1]; rat, in vivo): 0.5 mg/kg of body weight | IC50 [2]: 0.0038 µM | dose that reinstated firing (locus coeruleus): reinstated firing at the same level | Minimal effective doses (MED) MLHS (i.p.) (mouse): 30 mg/kg of body weight | Minimal effective doses (MED) AS (i.p.) (DBA-2 mice): 1 mg/kg of body weight

Fc1cccc2c1OC(C1=NCCN1)CC2 (centres unmarked) [Example 3e, 2-(2-Imidazolin-2-yl)-8-fluorochroman]
IC50 [2]: 0.0535 µM | Minimal effective doses (MED) MLHS (i.p.) (mouse): 30 mg/kg of body weight | Minimal effective doses (MED) AS (i.p.) (DBA-2 mice): ~3* mg/kg of body weight

c1ccc2c(c1)OCC(C1=NCCN1)O2 (centres unmarked) [RX 781094, 2-[2-(1,4-benzodioxanyl)]-22imidazoline hydrochloride, reference compound]
Minimal effective doses (MED) CH (s.c.) ([1]; s.c., 30 minutes before clonidine 0.01 mg/kg i.p., rats, activity counts for 20 minutes): 0.03 mg/kg of body weight | Minimal effective doses (MED) AS (i.p.) (DBA-2 mice): 2.5 mg/kg of body weight

COC(=O)[C@@H]1[C@H]2C[C@H]3c4[nH]c5ccccc5c4CCN3C[C@@H]2CC[C@@H]1O [yohimbine, reference compound]
clonidine required to re-suppress firing (locus coeruleus): 160 micrograms/kg of body weight | dose that reinstated firing (locus coeruleus): 2.0 mg/kg of body weight
